# How the values were obtained:
# duck salad = assay: Test B flood test duck salad; format: in vivo, Heteranthera limosa; conditions: for Plant response rating, Ducksalad (0 to 10 scale, 0 is no effect, 10 is complete control) / Ducksalad plant response rating (0 to 10 scale, 0 is no effect, 10 is complete control): visual evaluation after twelve to sixteen days; for Ducksalad plant response rating (0 to 10 scale, 0 is no effect, 10 is complete control): under heading Pre-emergence
# Outline: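 Plants were grown to the 2-leaf stage before treatment with test chemical, then held in a greenhouse for twelve to sixteen days. Injury was visually rated against untreated controls on a 0–10 scale, where 0 is no effect and 10 is complete control.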
# rape = assay: Test B pre/postemergence rape; format: in vivo, Brassica napus
# Outline: (§1)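 Herbicidal effect was estimated by eye on a ten-point control scale after plants spent twelve to sixteen days in a greenhouse following soil or foliar treatment. Foliar sprays targeted plants at one to four leaves; all doses were formulated in a non-phytotoxic solvent with surfactant.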
# sugar beet = assay: Test B pre/postemergence sugar beet; format: in vivo, Beta vulgaris
# Outline: as §1
# purple nutsedge = assay: Test B pre/postemergence purple nutsedge; format: in vivo, Cyperus rotundus
# Outline: as §1
# [1] = Rate 62 g/ha, flood test species, Pre-emergence
# [2] = Rate 125 g/ha, flood test species
# [3] = Rate 250 g/ha, Pre-emergence (flood test species), scale 0 to 10, 0 is no effect, 10 is complete control
# [4] = Rate 500 g/ha, Pre-emergence section of Table B, 0 to 10 scale (0 no effect, 10 complete control)
# [5] = Postemergence, Rate 62 g/ha, scale 0 to 10, 0 is no effect, 10 is complete control
# [6] = Postemergence, Rate 125 g/ha, scale of 0 to 10 where 0 is no effect and 10 is complete control
# [7] = Postemergence, Rate 250 g/ha, scale of 0 to 10, 0 is no effect, 10 is complete control
# [8] = Postemergence, Rate 500 g/ha, scale of 0 to 10 where 0 is no effect and 10 is complete control
# [9] = Preemergence, Rate 62 g/ha, scale 0 to 10 (0 no effect, 10 complete control)
# [10] = Preemergence, Rate 125 g/ha, scale of 0 to 10 where 0 is no effect and 10 is complete control
# [11] = Preemergence, Rate 500 g/ha, scale of 0 to 10 where 0 is no effect and 10 is complete control
# [12] = Rate 125 g/ha, Postemergence section (flood test species), scale 0 to 10, 0 no effect, 10 complete control
# [13] = flood test, listed under Postemergence, Rate 250 g/ha, scale 0 to 10, 0 no effect, 10 complete control
# [14] = Postemergence, Rate 250 g/ha, scale 0 to 10, 0 no effect, 10 complete control
# [15] = Preemergence, Rate 62 g/ha, scale 0 to 10, 0 is no effect, 10 is complete control
# [16] = Preemergence, Rate 125 g/ha, scale 0 to 10 (0 no effect, 10 complete control)
# [17] = Preemergence, Rate 250 g/ha, scale of 0 to 10 where 0 is no effect and 10 is complete control
# [18] = Preemergence, Rate 500 g/ha, scale 0 (no effect) to 10 (complete control)
# [19] = Rate 125 g/ha, Postemergence, scale 0 to 10, 0 no effect, 10 complete control
# [20] = Rate 500 g/ha, Postemergence, scale 0 to 10, 0 no effect, 10 complete control
# [21] = Preemergence, Rate 62 g/ha, scale of 0 to 10 where 0 is no effect and 10 is complete control
# [22] = Rate 62 g/ha, Postemergence, scale 0 to 10 (0 no effect, 10 complete control)
# [23] = Rate 125 g/ha, Postemergence, scale of 0 to 10 where 0 is no effect and 10 is complete control
# [24] = Rate 250 g/ha, Postemergence, scale of 0 to 10 where 0 is no effect and 10 is complete control
# [25] = Rate 500 g/ha, Postemergence, 0 to 10 scale (0 no effect, 10 complete control)
# [26] = Preemergence, Rate 250 g/ha, scale 0 to 10 (0 no effect, 10 complete control)
# [27] = Rate 500 g/ha, Postemergence, scale 0 to 10, 0 is no effect, 10 is complete control
smiles,measurement,setting,value
CCC(C)n1c(=O)on(C(=O)N(c2ccccc2)C(C)C)c1=O (centres unmarked) [Compound 611],"Plant response rating, Ducksalad (0 to 10 scale, 0 is no effect, 10 is complete control)",duck salad; [1],0
same,"Ducksalad plant response rating (0 to 10 scale, 0 is no effect, 10 is complete control)",duck salad; [2],0
same,Ducksalad plant response rating,duck salad; [3],0
same,Ducksalad plant response rating,duck salad; [4],1
same,"Plant response rating, Rape",rape; [5],0
same,"Plant response rating, Rape",rape; [6],0
same,Rape plant response rating,rape; [7],2
same,"Plant response rating, Rape",rape; [8],3
same,Rape plant response rating,rape; [9],3
same,Rape plant response rating,rape; [10],3
same,"Plant response rating, Rape",rape; [11],10
same,"Plant response rating, Sugarbeets",sugar beet; [5],0
same,"Plant response rating, Sugarbeets",sugar beet; [6],0
same,Sugarbeets plant response rating,sugar beet; [7],0
same,"Plant response rating, Sugarbeets",sugar beet; [8],2
same,Sugarbeets plant response rating,sugar beet; [9],2
same,Sugarbeets plant response rating,sugar beet; [10],2
same,"Plant response rating, Sugarbeets",sugar beet; [11],6
same,"Plant response rating, Nutsedge",purple nutsedge; [5],0
same,"Plant response rating, Nutsedge",purple nutsedge; [6],0
same,Nutsedge plant response rating,purple nutsedge; [7],3
same,"Plant response rating, Nutsedge",purple nutsedge; [8],3
same,Nutsedge plant response rating,purple nutsedge; [9],0
same,Nutsedge plant response rating,purple nutsedge; [10],0
same,"Plant response rating, Nutsedge",purple nutsedge; [11],2
Cc1cccc(Cl)c1-n1c(=O)on(C(=O)N(c2ccc(Cl)cc2)C(C)C)c1=O [Compound 54],Ducksalad plant response rating,duck salad; [5],0
same,Ducksalad plant response rating,duck salad; [12],0
same,Ducksalad plant response rating,"duck salad; Rate 500 g/ha, listed under Postemergence (flood test species), scale 0 to 10, 0 no effect, 10 complete control",0
same,Ducksalad plant response rating,duck salad; [13],0
same,Rape plant response rating,rape; [5],0
same,Rape plant response rating,rape; [14],0
same,"Plant response rating, Rape",rape; [15],0
same,"Plant response rating, Rape",rape; [16],0
same,"Plant response rating, Rape",rape; [17],0
same,Rape plant response rating,rape; [18],0
same,Rape plant response rating,rape; [19],0
same,Rape plant response rating,rape; [20],0
same,Sugarbeets plant response rating,sugar beet; [5],0
same,Sugarbeets plant response rating,sugar beet; [14],0
same,"Plant response rating, Sugarbeets",sugar beet; [15],0
same,"Plant response rating, Sugarbeets",sugar beet; [16],0
same,"Plant response rating, Sugarbeets",sugar beet; [17],0
same,Sugarbeets plant response rating,sugar beet; [18],0
same,Sugarbeets plant response rating,sugar beet; [19],0
same,Sugarbeets plant response rating,sugar beet; [20],0
same,Nutsedge plant response rating,purple nutsedge; [5],0
same,Nutsedge plant response rating,purple nutsedge; [14],0
same,"Plant response rating, Nutsedge",purple nutsedge; [15],0
same,"Plant response rating, Nutsedge",purple nutsedge; [16],0
same,"Plant response rating, Nutsedge",purple nutsedge; [17],0
same,Nutsedge plant response rating,purple nutsedge; [18],0
same,Nutsedge plant response rating,purple nutsedge; [19],0
same,Nutsedge plant response rating,purple nutsedge; [20],0
C=CCn1c(=O)on(C(=O)N(CC)C2CCCCC2)c1=O [Compound 307],Ducksalad plant response rating,"duck salad; Pre-emergence, Rate 1000 g/ha, scale 0 to 10 (0 no effect, 10 complete control)",0
same,Ducksalad plant response rating,"duck salad; Rate 125 g/ha, Pre-emergence, flood test species, scale 0 to 10 where 0 is no effect and 10 is complete control",0
same,Ducksalad plant response rating,"duck salad; Rate 250 g/ha, Pre-emergence, flood-test species, scale 0 to 10, 0 is no effect, 10 is complete control",0
same,Ducksalad plant response rating,"duck salad; Rate 500 g/ha, Pre-emergence, flood test species, scale 0 to 10 (0 no effect, 10 complete control)",0
same,Rape plant response rating,rape; [21],0
same,Rape plant response rating (0 to 10 scale),"rape; Preemergence, Rate 125 g/ha",0
same,Rape plant response rating,rape; [17],0
same,Rape plant response rating,rape; [11],0
same,Rape plant response rating,rape; [22],0
same,Rape plant response rating,rape; [23],0
same,"Plant response rating, Rape",rape; [24],0
same,Sugarbeets plant response rating,sugar beet; [21],0
same,Sugarbeets plant response rating (0 to 10 scale),"sugar beet; Preemergence, Rate 125 g/ha",0
same,Sugarbeets plant response rating,sugar beet; [17],0
same,Sugarbeets plant response rating,sugar beet; [11],2
same,Sugarbeets plant response rating,sugar beet; [22],0
same,Sugarbeets plant response rating,sugar beet; [23],0
same,"Plant response rating, Sugarbeets",sugar beet; [24],0
same,Nutsedge plant response rating,purple nutsedge; [21],0
same,Nutsedge plant response rating (0 to 10 scale),"purple nutsedge; Preemergence, Rate 125 g/ha",0
same,Nutsedge plant response rating,purple nutsedge; [17],0
same,Nutsedge plant response rating,purple nutsedge; [11],0
same,Nutsedge plant response rating,purple nutsedge; [22],0
same,Nutsedge plant response rating,purple nutsedge; [23],0
same,"Plant response rating, Nutsedge",purple nutsedge; [24],0
Cc1c(Cl)cccc1-n1c(=O)on(C(=O)N(c2ccc(F)cc2)C(C)C)c1=O [Compound 21],Ducksalad plant response rating,duck salad; [5],0
same,Ducksalad plant response rating,duck salad; [12],0
same,Ducksalad plant response rating,"duck salad; Rate 500 g/ha, Postemergence section of Table B, 0 to 10 scale (0 no effect, 10 complete control)",0
same,Ducksalad plant response rating,duck salad; [13],0
same,Rape plant response rating,rape; [5],0
same,Rape plant response rating,rape; [14],0
same,"Plant response rating, Rape",rape; [15],0
same,"Plant response rating, Rape",rape; [16],0
same,"Plant response rating, Rape",rape; [17],0
same,Rape plant response rating,rape; [18],0
same,Rape plant response rating,rape; [19],0
same,Rape plant response rating,rape; [25],0
same,Sugarbeets plant response rating,sugar beet; [5],0
same,Sugarbeets plant response rating,sugar beet; [14],0
same,"Plant response rating, Sugarbeets",sugar beet; [15],0
same,"Plant response rating, Sugarbeets",sugar beet; [16],0
same,"Plant response rating, Sugarbeets",sugar beet; [17],3
same,Sugarbeets plant response rating,sugar beet; [18],8
same,Sugarbeets plant response rating,sugar beet; [19],0
same,Nutsedge plant response rating,purple nutsedge; [5],0
same,Nutsedge plant response rating,purple nutsedge; [14],0
same,"Plant response rating, Nutsedge",purple nutsedge; [15],0
same,"Plant response rating, Nutsedge",purple nutsedge; [16],0
same,"Plant response rating, Nutsedge",purple nutsedge; [17],0
same,Nutsedge plant response rating,purple nutsedge; [18],0
same,Nutsedge plant response rating,purple nutsedge; [19],0
same,Nutsedge plant response rating,purple nutsedge; [25],0
C=C(Cc1ccccc1)Cn1c(=O)on(C(=O)N(c2ccccc2)C(C)C)c1=O [Compound 650],"Plant response rating, Ducksalad (0 to 10 scale, 0 is no effect, 10 is complete control)",duck salad; [1],0
same,"Ducksalad plant response rating (0 to 10 scale, 0 is no effect, 10 is complete control)",duck salad; [2],0
same,Ducksalad plant response rating,duck salad; [3],0
same,Ducksalad plant response rating,duck salad; [4],0
same,"Plant response rating, Rape",rape; [5],0
same,Rape plant response rating,rape; [6],0
same,Rape plant response rating,rape; [21],0
same,Rape plant response rating,rape; [10],0
same,"Plant response rating, Rape",rape; [26],0
same,"Plant response rating, Rape",rape; [11],2
same,Rape plant response rating,rape; [27],3
same,"Plant response rating, Sugarbeets",sugar beet; [5],0
same,Sugarbeets plant response rating,sugar beet; [6],0
same,Sugarbeets plant response rating,sugar beet; [21],0
same,Sugarbeets plant response rating,sugar beet; [10],0
same,"Plant response rating, Sugarbeets",sugar beet; [26],0
same,"Plant response rating, Sugarbeets",sugar beet; [11],4
same,Sugarbeets plant response rating,sugar beet; [27],0
same,"Plant response rating, Nutsedge",purple nutsedge; [5],2
same,Nutsedge plant response rating,purple nutsedge; [6],2
same,Nutsedge plant response rating,purple nutsedge; [10],3
same,"Plant response rating, Nutsedge",purple nutsedge; [26],7
same,"Plant response rating, Nutsedge",purple nutsedge; [11],5
same,Nutsedge plant response rating,purple nutsedge; [27],4
C=C(Cl)Cn1c(=O)on(C(=O)N(c2ccc(F)cc2F)C(C)C)c1=O [Compound 634],"Plant response rating, Ducksalad (0 to 10 scale, 0 is no effect, 10 is complete control)",duck salad; [1],0
same,"Ducksalad plant response rating (0 to 10 scale, 0 is no effect, 10 is complete control)",duck salad; [2],0
same,Ducksalad plant response rating,duck salad; [3],0
same,Ducksalad plant response rating,duck salad; [4],0
same,"Plant response rating, Rape",rape; [5],0
same,"Plant response rating, Rape",rape; [6],0
same,Rape plant response rating,rape; [7],0
same,"Plant response rating, Rape",rape; [8],0
same,Rape plant response rating,rape; [21],0
same,Rape plant response rating,rape; [10],2
same,"Plant response rating, Rape",rape; [26],6
same,"Plant response rating, Rape",rape; [11],7
same,"Plant response rating, Sugarbeets",sugar beet; [5],0
same,"Plant response rating, Sugarbeets",sugar beet; [6],0
same,Sugarbeets plant response rating,sugar beet; [7],0
same,Sugarbeets plant response rating,sugar beet; [21],0
same,Sugarbeets plant response rating,sugar beet; [10],0
same,"Plant response rating, Sugarbeets",sugar beet; [26],5
same,"Plant response rating, Sugarbeets",sugar beet; [11],6
same,"Plant response rating, Nutsedge",purple nutsedge; [5],0
same,"Plant response rating, Nutsedge",purple nutsedge; [6],0
same,"Plant response rating, Nutsedge",purple nutsedge; [8],0
same,Nutsedge plant response rating,purple nutsedge; [21],0
same,Nutsedge plant response rating,purple nutsedge; [10],0
same,"Plant response rating, Nutsedge",purple nutsedge; [26],0
same,"Plant response rating, Nutsedge",purple nutsedge; [11],0

# From patent US6737383B1, “Herbicidal oxadiazolidines” (priority 1999, dated 2004)
